Data from patent US20030072781A1, “Calcified tissue facing preparation containing antimicrobial agent” (Advantage Dental Products, Inc., priority 1998, published 2003).

Test system: Strept. mutans
Experiment: Strept. mutans culture rinse, colony count
Type: cell-based
Conditions: 30 second submersion, counted after 48 hours
Protocol: Standardized cultures of Strept. mutans are grown in petri dishes and subjected to 30 second submersion in 20 milliliters of various concentration rinses of aqueous chlorohexidine. A 0.04% chlorohexidine solution and water serve as controls. Thereafter, the petri dishes are incubated and colony members counted after 48 hours.

`[H]/N=C(\N/C(=N/[H])NCCCCCCNC(=N)NC(=N)Nc1ccc(Cl)cc1)Nc1ccc(Cl)cc1` [Chlorohexidine, chlorohexidine] was tested, and the “Colony Member After Rinse” value (0.04 wt. % aqueous rinse (control)) was 26, the “Colony Member After Rinse” value (0.2 wt. % aqueous rinse) was 0 and the “Colony Member After Rinse” value (0.5 wt. % aqueous rinse) was 1. The “Colony Member After Rinse” value (1.0 wt. % aqueous rinse) was 1, the “Colony Member After Rinse” value (2.0 wt. % aqueous rinse) was 0 and the “Colony Member After Rinse” value (5.0 wt. % aqueous rinse) was 2. The “Colony Member After Rinse” value (10.0 wt. % aqueous rinse) was 0.
